Data published in patent US9504663B2, “Composition for the treatment of cystic fibrosis” (SciPharm SaRL, priority 2011, dated 2016).
Entries after “also recorded” stand apart in the source; their conditions may differ.

Assays:
IB3-1 cells [1] = assay: Treprostinil-induced [3H]cAMP accumulation in IB3-1 cells with or without PDE inhibitors; format: cell-based, human; settings: for accumulation of cAMP with PDE3 inhibitors: in experiments
Method: IB3-1 cells were plated on 6 well-plates (0.2*10^6 cells/well in FIG. 1; 0.4*10^6 cells in FIG. 2) in complete growth medium (LHC-8+5% FCS). The following day, the adenine nucleotide pool was metabolically labeled by incubation with [3H]adenine (1 μCi/well) in Dulbecco's Modified Eagle Medium (DMEM) containing adenosine deaminase (1 unit/ml) for 4 h. Thereafter the medium was replaced with fresh medium; the cells were stimulated by sole addition of Treprostinil (in logarithmically spaced concentrations ranging from 0.1 to 30 μM) or of Treprostinil in combination with the indicated concentrations of PDE-inhibitors. After an incubation of 30 min, the cells were lysed by the addition of perchloric acid. The formation of [3H]cAMP was determined by sequential chromatography on Dowex 50WX-4 and neutral alumina columns followed by liquid scintillation counting of the eluate. The assay was performed in triplicate. IB3-1 cells were seeded onto PDL-coated wells of 6-well plates (2 to 2.5*10^5 cells/well) in complete growth medium (LHC-8+5% FCS). On the following day, the cellular adenine nucleotide pool was metabolically labelled by incubation with [^3H]adenine (1 μCi/well) in Dulbecco's Modified Eagle Medium (DMEM) in the presence of adenosine deaminase (5 μg/ml) for 4 h. Subsequently, the medium was replaced with fresh DMEM and the formation of cAMP was stimulated by addition of 5 μM forskolin, a direct activator of the adenylyl cyclase, or 10 μM treprostinil in the absence and presence of different concentrations of the following phosphodiesterase (PDE) inhibitors: ibudilast (0.3-1000 μM), Ro-20-1724 (0.03-300 μM), roflumilast (1 nM-10 μM), dipyridamole (0.01-100 μM), aminone (1, 10, 100 μM), anagrelide (1, 10, 100 μM), enoximone (1, 10, 100 μM), milrinone (1, 10, 100 μM) and cilostazol (0.1 to 100 μM) for 20 min at 37° C. […] The formation of [^3H]cAMP was quantified by liquid scintillation counting.

[2] = aerosolised; patient with cystic fibrosis and secondary pulmonary hypertension; cited from earlier work
IB3-1 cells [3] = assay: Forskolin-triggered [3H]cAMP accumulation in IB3-1 cells with PDE inhibitors; format: cell-based, human; settings: 5 μM forskolin
Method: IB3-1 cells were seeded onto PDL-coated wells of 6-well plates (2 to 2.5*10^5 cells/well) in complete growth medium (LHC-8+5% FCS). On the following day, the cellular adenine nucleotide pool was metabolically labelled by incubation with [^3H]adenine (1 μCi/well) in Dulbecco's Modified Eagle Medium (DMEM) in the presence of adenosine deaminase (5 μg/ml) for 4 h. Subsequently, the medium was replaced with fresh DMEM and the formation of cAMP was stimulated by addition of 5 μM forskolin, a direct activator of the adenylyl cyclase, or 10 μM treprostinil in the absence and presence of different concentrations of the following phosphodiesterase (PDE) inhibitors: ibudilast (0.3-1000 μM), Ro-20-1724 (0.03-300 μM), roflumilast (1 nM-10 μM), dipyridamole (0.01-100 μM), aminone (1, 10, 100 μM), anagrelide (1, 10, 100 μM), enoximone (1, 10, 100 μM), milrinone (1, 10, 100 μM) and cilostazol (0.1 to 100 μM) for 20 min at 37° C. In some instances, the effect of these inhibitors on basal cAMP accumulation was examined by incubating cells in the absence of any additional stimulus with increasing concentrations of PDE-inhibitors (i.e., dipyridamole, ibudilast and Ro-20-1724 at 1, 10 and 100 μM; roflumilast at and 0.1, 1 and 10 μM of Roflumilast). Concentration-response curves for treprostinil were obtained by adding treprostinil (0.1 to 30 μM) alone or in combination with 100 μM Ro-20-1724, 100 μM ibudilast or 5 μM roflumilast. The reaction performed in triplicate was stopped by adding 2.5% perchloric acid together with 0.1 mM (unlabelled) cAMP. [^3H]cAMP was isolated by sequential chromatography on Dowex 50W-X4 and neutral alumina columns. The formation of [^3H]cAMP was quantified by liquid scintillation counting.

[4] = system: cystic fibrosis transmembrane conductance regulator/Cl- channel (CFTR); assay: Whole cell patch clamp of treprostinil-induced Cl- currents through CFTR, Example 3; format: cell-based, human; settings: for effect on treprostinil-induced CFTR current of adding PDE4 inhibitor: added on top of treprostinil
Method: The following human bronchial epithelial cell lines were obtained through ATCC: BEAS-2B (ATCC CRL-9609), NuLi-1 (ATCC CRL-4011), IB3-1 (ATCC CRL-2777), CuFi-1 (ATCC CRL-4013). Cells were propagated using the culture conditions outlined in the ATCC recommendations, e.g., I3B-1 cells were maintained on dishes coated with fibronectin (10 μg/m) rat collagen I (30 μg/ml) and BSA 10 μg/mL) in LHC-8 medium (Gibco) containing 5% fetal calf serum (FCS) at 37° C. in a 5% CO2 humified atmosphere. BEAS-2B cells were maintained at 37° C. in a 5% CO2 humified atmosphere on dishes precoated with collagen IV (60 μg/ml in 0.25% acetic acid) in BEGM medium (Lonza); the GA-1000 (gentamycin-amphotericin B mix) provided with the BEGM kit was not added to the medium. The level of endogenous expression of CFTR was too low to obtain a reliable signal. Accordingly, BEAS-2B cells were transiently transfected with a plasmid driving the expression of human GFP-tagged wild type CFTR by using Lipofectamine Plus® (Invitrogen) according to the instructions of the manufacturer. Cells expressing this GFP-tagged CFTR were identified by fluorescence microscopy and subjected to patch clamp recordings as outlined below. The whole cell patch clamp technique was used for current recordings performed at 22±1.5° C. using an Axoclamp 200B patch clamp amplifier (Axon Instruments). Pipettes had resistances between 1 and 2 MO when filled with the recording pipette solution (composition: 110 mM CsCl, 5 mM EGTA, 2 mM MgCl2, 1 mM K2.ATP, 10 mM Hepes, pH adjusted to 7.2 with CsOH). Voltage-clamp protocols and data acquisition were performed with […] 6.0 software (Axon Instruments). Data were low-pass filtered at 2 kHz (-3 dB) and digitized at 10-20 kHz. Cells were continuously superfused with external solution (composition: 145 mM NaCl, 4.5 mM KCl, 2 mM CaCl2, 1 mM MgCl2, 5 mM glucose, 10 mM Hepes, pH adjusted to 7.4 with NaOH). When indicated, the external solution contained Treprostinil (10 μM) or forskolin (5 μM), switching between solutions was achieved by electronically controlled pressure valves.

CFTR-wt = assay: Whole cell patch clamp of Cl- current in IB3-1 cells transiently expressing GFP-tagged wild type CFTR; format: cell-based, human
Method: The whole cell patch clamp technique was used for current recordings performed at 22±1.5° C. using an Axoclamp 200B patch clamp amplifier (Axon Instruments). Pipettes had resistances between 1 and 2 MΩ when filled with the recording pipette solution (composition: 110 mM CsCl, 5 mM EGTA, 2 mM MgCl2, 1 mM K2.ATP, 10 mM Hepes, pH adjusted to 7.2 with CsOH). […] Data were low-pass filtered at 2 kHz (-3 dB) and digitized at 10-20 kHz. Cells were continuously superfused with external solution (composition: 145 mM NaCl, 4.5 mM KCl, 2 mM CaCl2, 1 mM MgCl2, 5 mM glucose, 10 mM Hepes, pH adjusted to 7.4 with NaOH). When indicated, the external solution contained Treprostinil (10 μM) or forskolin (5 μM), switching between solutions was achieved by electronically controlled pressure valves. IB3-1 cells were grown on dishes (Nunc, 3.5 cm diameter) covered with fibronectin (10 μg/mL) rat collagen I (30 μg/mL) and BSA 10 μg/mL) in LHC-8 medium (Gibco) containing 5% fetal calf serum (FCS). Cells were transiently transfected with a plasmid driving the expression of human GFP-tagged wild type CFTR by using Lipofectamine Plus® (Invitrogen) according to the instructions of the manufacturer. […] A transiently transfected IB3-1 cell expressing GFP-tagged wild type CFTR was selected under fluorescent light and clamped to a holding potential at -40 mV. Depolarization was induced by a voltage step to +60 mV for 50 ms and the current amplitude was recorded. Wash-in of Treprostinil (10 μM final concentration, TP) was initiated at the time point 50 s and terminated at 125 s. Forskolin was washed in at 275 s and was removed at 375 s.

rabbit erythrocytes = settings: cited from earlier work
human erythrocytes = settings: cited from earlier work

O=C1CN2Cc3c(ccc(Cl)c3Cl)N=C2N1 [Anagrelide]
accumulation of cAMP with PDE3 inhibitors (IB3-1 cells [1]): did not induce any accumulation of cAMP

O=C1CCc2cc(OCCCCc3nnnn3C3CCCCC3)ccc2N1 [Cilostazol]
accumulation of cAMP with PDE3 inhibitors (IB3-1 cells [1]): did not induce any accumulation of cAMP

CC#CCC(C)[C@H](O)/C=C/[C@@H]1[C@H]2C/C(=C/CCCC(=O)O)C[C@H]2C[C@H]1O (stereo partly drawn) [Iloprost, 5-{(E)-(1S,5S,6R,7R)-7-hydroxy-6-[(E)-(3S,4RS)-3-hydroxy-4-methyl-1-octen-6-inyl]-bi-cyclo[3.3.0]octan-3-ylidene}pentanoic acid]
pulmonary artery pressure [2]: effective in lowering pulmonary artery pressure

CCCCOc1cc(CC2CNC(=O)N2)ccc1OC (centres unmarked) [RO20-1724]
enhancement of the cAMP accumulation triggered by forskolin (IB3-1 cells [3]): substantially enhanced | relative efficacy, forskolin-triggered cAMP accumulation (IB3-1 cells [3]; compared with roflumilast): more effective than roflumilast | effect on treprostinil-induced CFTR current of adding PDE4 inhibitor [4]: additional increase of the current

O=C(Nc1c(Cl)cncc1Cl)c1ccc(OC(F)F)c(OCC2CC2)c1 [Roflumilast, 3-(cyclopropylmethoxy)-N-(3,5-dichloropyridin-4-yl)-4-(difluoromethoxy)benzamide]
enhancement of the cAMP accumulation triggered by forskolin (IB3-1 cells [3]): substantially enhanced | relative potency as inhibitor, forskolin-triggered cAMP accumulation (IB3-1 cells [3]): most potent inhibitor | effect on treprostinil-induced CFTR current of adding PDE4 inhibitor [4]: additional increase of the current

CCCCC[C@H](O)CC[C@@H]1[C@H]2Cc3cccc(OCC(=O)[O-])c3C[C@H]2C[C@H]1O.[Na+] [Treprostinil, (1R,2R,3aS,9aS)-[[2,3,3a,4,9,9a-hexahydro-2-hydroxy-1-[(3S)-3-hydroxyoctyl]-1H-benz[f]inden-5-yl]oxy]acetic acid monosodium salt]
activation of the current (CFTR) (CFTR-wt; 10 μM Treprostinil, depolarization from −40 mV holding potential to +60 mV, monosodium salt): robust activation; also recorded: can activate CFTR | time for current to decay to basal after washout (CFTR-wt; 10 μM treprostinil): ~100 s | activation of CFTR (outward current) ([4]; voltage jumps from −20 to −80 mV): sustained activation of CFTR | receptor-mediated cAMP synthesis and ATP release (rabbit erythrocytes): stimulate | receptor-mediated cAMP synthesis and ATP release (human erythrocytes): stimulate

OCCN(CCO)c1nc(N2CCCCC2)c2nc(N(CCO)CCO)nc(N3CCCCC3)c2n1 [dipyridamole]
efficacy in treprostinil-triggered cAMP accumulation (IB3-1 cells [1]; 10 μM treprostinil): higher efficacy | enhancement of the cAMP accumulation triggered by forskolin (IB3-1 cells [3]): substantially enhanced | relative potency as inhibitor, forskolin-triggered cAMP accumulation (IB3-1 cells [3]): less potent inhibitor
